According to US4347319A, “Microbiological epoxidation process” (priority 1980, dated 1982):
Like-named read-outs stand apart in the source and are kept apart here.

Columns and labels:
[1] = test system: Methylobacter chroococcum CRL M6 NRRL B-11,214; assay: Sec. alcohol oxidation by cell suspensions of methanol-grown cells; type: cell-based; conditions: sec. alcohol to methyl ketone
Source text: (§1) In this example, the procedure of Example 1 was repeated except that a plurality of the methane-utilizing methylotrophic microorganisms of the invention were each aerobically grown in a methanol-containing nutrient medium instead of a methane-containing medium. The nutrients in the medium were the same as indicated in Example 1 except that 0.4% v/v methanol was used as the alcohol dehydrogenase enzyme inducer and major source of carbon and energy for growth. Following growth the cells were harvested and washed as described in Example 1. The resting cells of the induced methanol-grown methylotrophic microorganisms were then contacted with a […] under aerobic conditions in a buffered solution by the procedure described in Example 1.

[2] = test system: Methylobacter vinelandii CRL M5Y NRRL B-11,218; assay: as above; type: cell-based; conditions: sec. alcohol to methyl ketone
Source text: as §1

[3] = test system: Methylobacterium organophilum CRL 26 NRRL B-11,222; assay: as above; type: cell-based; conditions: sec. alcohol to methyl ketone
Source text: as §1

[4] = test system: Methylococcus capsulatus CRL M1 NRRL B-11,219; assay: as above; type: cell-based; conditions: sec. alcohol to methyl ketone
Source text: as §1

[5] = test system: Methylocystis parvus CRL 18 NRRL B-11,204; assay: as above; type: cell-based; conditions: sec. alcohol to methyl ketone
Source text: as §1

[6] = test system: Methylomonas methanica CRL M4P NRRL B-11,205; assay: as above; type: cell-based; conditions: sec. alcohol to methyl ketone
Source text: as §1

[7] = test system: Methylosinus trichosporium CRL 15 NRRL B-11,202; assay: as above; type: cell-based; conditions: sec. alcohol to methyl ketone
Source text: as §1

[8] = test system: Candida utilis ATCC 26387; assay: Oxidation of sec-alcohols to ketones by cell suspensions of yeasts; type: cell-based; conditions: sec-alcohol to methyl ketone
[9] = test system: Hansenula polymorpha ATCC 26012; assay: as above; type: cell-based; conditions: sec-alcohol to methyl ketone
[10] = test system: Pichia sp. NRRL-Y-11328; assay: as above; type: cell-based; conditions: sec-alcohol to methyl ketone
[11] = test system: Torulopsis sp. Strain A1 (NRRLY-11,419); assay: as above; type: cell-based; conditions: sec-alcohol to methyl ketone
[12] = test system: Kloeckera sp. Strain A2 (NRRLY-11,420); assay: as above; type: cell-based; conditions: sec-alcohol to methyl ketone
[13] = test system: cell extract of Candida utilis ATCC 26,387; assay: Oxidation of secondary alcohols to methylketone by cell extracts of yeasts; type: biochemical; conditions: methanol-grown; cell extract + NAD^+; sec. alcohol to methyl ketone; gas chromatography
[14] = test system: cell extract of Hansenula polymorpha ATCC 26,012; assay: as above; type: biochemical; conditions: methanol-grown; cell extract + NAD^+; sec. alcohol to methyl ketone; gas chromatography
[15] = test system: cell extract of Pichia sp. NRRL-Y-11,328; assay: as above; type: biochemical; conditions: methanol-grown; cell extract + NAD^+; sec. alcohol to methyl ketone; gas chromatography
[16] = test system: cell extract of Torulopsis sp. strain A1 NRRL-Y-11,419; assay: as above; type: biochemical; conditions: methanol-grown; cell extract + NAD^+; sec. alcohol to methyl ketone; gas chromatography
[17] = test system: cell extract of Kloeckera sp. strain A2 NRRL-Y-11,420; assay: as above; type: biochemical; conditions: methanol-grown; cell extract + NAD^+; sec. alcohol to methyl ketone; gas chromatography
[18] = test system: purified secondary alcohol dehydrogenase from Pichia sp. NRRL Y-11,328; assay: Substrate specificity, electron acceptor and stoichiometry of purified yeast SADH; type: biochemical; conditions: examined spectrophotometrically
[19] = test system: Methylobacter bovis (CRL 19 PM5) NRRL B-11,217; assay: Oxidation by washed cell suspensions of methane-grown cells; type: cell-based
Procedure: (§2) The pH of the nutrient medium was adjusted to 7.0 by the addition of acid or base and 50 ml samples of the nutrient medium were charged into a plurality of 300 ml shaker flasks. The shaker flasks were inoculated with an inoculating loop of cells from an agar plate containing homogeneous colonies of the microorganisms on the plate (the purity of the isolates was confirmed by microscopic examination. The isolates had been maintained on agar plates under an atmosphere of methane and air having a 1:1 v/v gas ratio which had been transferred evey two weeks. The gaseous phase of the inoculated flasks was then replaced with a gas mixture comprised of methane and air having a ratio of 1:1 on a v/v basis. The inoculated flasks were sealed air tight and were incubated on a rotary shaker of orbital radius 2.5 cm at 250 rpm and at 30° C. for two days until turbidity in the medium had developed.
(§3) The cells were harvested by centrifugation at 10,000×g. at 4° C. for 30 minutes. The cell pellet was washed twice with a 0.15 M phosphate buffer at a pH of 7.0 (containing 0.002 M MgCl2). The washed cells were then suspended in a 0.15 M phosphate buffer at pH 7.0.
(§4) A 0.5 ml sample of each washed cell suspension (2 mg cells) was put into 10 ml vials at 4° C. which were sealed with a rubber cap. The gaseous phase of the vials was removed with vacuum and then was replaced with a gas mixture of the oxidative substrate (e.g., methane) and oxygen at a 1:1 v/v ratio. The vials were then incubated at 30 ° C. on a rotary shaker at 300 rpm. Samples of product (3 μl) were withdrawn periodically with a microsyringe and the products were analyzed by gas chromatography (ionization flame detector column).
(§5) The newly discovered and isolated microorganism strains of the present invention were each grown aerobically in the presence of methane in the manner described above. The methane-grown microbial cells were then washed, recovered and put to use in oxidizing an oxidative substrate by the procedure described above except in the case of a liquid substrate 10 μl of the substrate were used.

[20] = test system: Methylobacter chroococcum (CRL 23 PM8) NRRL B-11,215; assay: as above; type: cell-based
Procedure: as §2, §3, §4, §5

[21] = test system: Methylobacter chroococcum (CRL M6) NRRL B-11,214; assay: as above; type: cell-based
Procedure: as §2, §3, §4, §5

[22] = test system: Methylobacter vinelandii (CRL M5Y) NRRL B-11,218; assay: as above; type: cell-based; conditions: for Conversion Rate: methane-grown cells, n-pentane to 2-pentanone, n-hexane to 2-hexanone
Procedure: as §2, §3, §4, §5

[23] = test system: Methylobacterium organophilum (CRL 26 R6) NRRL B-11,222; assay: as above; type: cell-based
Procedure: as §2, §3, §4, §5

[24] = test system: Methylococcus capsulatus (CRL 25 PM13) NRRL B-11,221; assay: as above; type: cell-based
Procedure: as §2, §3, §4, §5

[25] = test system: Methylococcus capsulatus (CRL M1) NRRL B-11,219; assay: as above; type: cell-based
Procedure: as §2, §3, §4, §5

[26] = test system: Methylococcus minimus (CRL 24 PM12) NRRL B-11,220; assay: as above; type: cell-based
Procedure: as §2, §3, §4, §5

[27] = test system: Methylomonas agile (CRL 22 PM9) NRRL B-11,209; assay: as above; type: cell-based
Procedure: as §2, §3, §4, §5

[28] = test system: Methylomonas albus (CRL M8Y) NRRL B-11,207; assay: as above; type: cell-based
Procedure: as §2, §3, §4, §5

[29] = test system: Methylomonas methanica (CRL M4P) NRRL B-11,205; assay: as above; type: cell-based
Procedure: as §2, §3, §4, §5

[30] = test system: Methylomonas streptobacterium (CRL 17 PM3) NRRL B-11,208; assay: as above; type: cell-based
Procedure: as §2, §3, §4, §5

[31] = test system: Methylosinus sporium (CRL 16 PM2) NRRL B-11,203; assay: as above; type: cell-based
Procedure: as §2, §3, §4, §5

[32] = test system: Methylosinus trichosporium (CRL 15 PM1) NRRL B-11,202; assay: as above; type: cell-based
Procedure: as §2, §3, §4, §5

[33] = test system: Methylomonas rosaceus (CRL M10P) NRRL B-11,212; type: cell-based
Procedure: as §2, §3, §4, §5

[34] = test system: Methylobacter bovis (CRL M1Y) NRRL B-11,216; assay: Oxidation by washed cell suspensions of methane-grown cells; type: cell-based
Procedure: as §2, with “The inoculated flasks were sealed air tight and were incubated on a rotary shaker of orbital radius 2.5 cm at 250 rpm and at 30° C. for two days until turbidity in the medium had developed.” left out
as §3, §4, §5

[35] = test system: Methylomonas methanica (CRL 21 PM7) NRRL B-11,206; assay: as above; type: cell-based; conditions: methane-grown cells; n-pentane to 2-pentanone, n-hexane to 2-hexanone
Procedure: as §2, §3, §4, §5

[36] = test system: Methylococcus capsulatus (Texas, ATCC 19,069); assay: Oxidation by cell suspensions of methane-grown cells; type: cell-based; conditions: growth substrate Methane; n-alkane to secondary alcohol
Procedure: as §2, §3, §4
(§6) The conditions for preparing the cell suspensions or the cell-free particulate fractions from methane-grown methylotroph microorganisms is the same as described above.

[37] = test system: Methylosinus trichosporium OB3b (NRRL B-11,196); assay: as above; type: cell-based; conditions: growth substrate Methane; n-alkane to secondary alcohol
Procedure: as §2, §3, §4, §6

[38] = methane-grown cells, n-pentane to 2-pentanone, n-hexane to 2-hexanone

CCCCC(C)O (centres unmarked) [2-Hexanol]
Conversion Rates [1]: 0.02 μmoles/hr/mg protein
Conversion Rates [2]: 0.02 μmoles/hr/mg protein
Conversion Rates [3]: 0.09 μmoles/hr/mg protein
Conversion Rates [4]: 0.08 μmoles/hr/mg protein
Conversion Rates [5]: 0.05 μmoles/hr/mg protein
Conversion Rates [6]: 0.03 μmoles/hr/mg protein
Conversion Rates [7]: 0.06 μmoles/hr/mg protein
Conversion Rate ([8]; growth substrate Ethanol): 0.72 μmoles/hr/mg of protein
Conversion Rate ([8]; growth substrate Methanol): 0.8 μmoles/hr/mg of protein
Conversion Rate ([8]; growth substrate Methylamine): 0.61 μmoles/hr/mg of protein
Conversion Rate ([8]; growth substrate Methylformate): 0.75 μmoles/hr/mg of protein
Conversion Rate ([8]; growth substrate Propylamine): 0.52 μmoles/hr/mg of protein
Conversion Rate ([9]; growth substrate Ethanol): 0.54 μmoles/hr/mg of protein
Conversion Rate ([9]; growth substrate Methanol): 0.72 μmoles/hr/mg of protein
Conversion Rate ([9]; growth substrate Methylamine): 0.62 μmoles/hr/mg of protein
Conversion Rate ([9]; growth substrate Methylformate): 0.70 μmoles/hr/mg of protein
Conversion Rate ([9]; growth substrate Propylamine): 0.48 μmoles/hr/mg of protein
Conversion Rate ([10]; growth substrate Ethanol): 0.28 μmoles/hr/mg of protein
Conversion Rate ([10]; growth substrate Methanol): 0.50 μmoles/hr/mg of protein
Conversion Rate ([10]; growth substrate Methylamine): 0.31 μmoles/hr/mg of protein
Conversion Rate ([10]; growth substrate Methylformate): 0.48 μmoles/hr/mg of protein
Conversion Rate ([10]; growth substrate Propylamine): 0.21 μmoles/hr/mg of protein
Conversion Rate ([11]; growth substrate Ethanol): 0.20 μmoles/hr/mg of protein
Conversion Rate ([11]; growth substrate Methanol): 0.21 μmoles/hr/mg of protein
Conversion Rate ([11]; growth substrate Methylamine): 0.12 μmoles/hr/mg of protein
Conversion Rate ([11]; growth substrate Methylformate): 0.25 μmoles/hr/mg of protein
Conversion Rate ([11]; growth substrate Propylamine): 0.10 μmoles/hr/mg of protein
Conversion Rate ([12]; growth substrate Ethanol): 0.12 μmoles/hr/mg of protein
Conversion Rate ([12]; growth substrate Methanol): 0.25 μmoles/hr/mg of protein
Conversion Rate ([12]; growth substrate Methylamine): 0.10 μmoles/hr/mg of protein
Conversion Rate ([12]; growth substrate Methylformate): 0.28 μmoles/hr/mg of protein
Conversion Rate ([12]; growth substrate Propylamine): 0.11 μmoles/hr/mg of protein
Conversion Rate [13]: 0.45 μmoles/hr/mg Protein
Conversion Rate [14]: 0.51 μmoles/hr/mg Protein
Conversion Rate [15]: 0.60 μmoles/hr/mg Protein
Conversion Rate [16]: 0.21 μmoles/hr/mg Protein
Conversion Rate [17]: 0.25 μmoles/hr/mg Protein
oxidation by the purified enzyme [18]: catalyzed the oxidation

C=CCC [Butene-1]
Oxidative Conversion Rates [19]: 1.3
Oxidative Conversion Rates [20]: 0.82
Oxidative Conversion Rates [21]: 0.7
Oxidative Conversion Rates ([22]; methane-grown washed cells, 30° C., methane to methanol, alkene to 1,2-epoxide): 0 μmole/hr/mg protein
Oxidative Conversion Rates [23]: 0.9
Oxidative Conversion Rates [24]: 1.9
Oxidative Conversion Rates [25]: 1.3
Oxidative Conversion Rates [26]: 1.5
Oxidative Conversion Rates [27]: 0.5
Oxidative Conversion Rates [28]: 1.8
Oxidative Conversion Rates [29]: 2.8
Oxidative Conversion Rates [30]: 2.5
Oxidative Conversion Rates [31]: 1.2
Oxidative Conversion Rates [32]: 1.8
Oxidative Conversion Rates [33]: 3.1
Oxidative Conversion Rates [34]: 1.1

CCCCCC [n-Hexane]
Conversion Rate [22]: 0.01 μmole/hr/mg protein
Conversion Rate [25]: 0.08
Conversion Rate [35]: 0.01 μmole/hr/mg protein
Conversion Rate [32]: 0.04
Conversion Rate [36]: 0.01 μmoles/hr/^5 mg. protein
Conversion Rate [37]: 0.01 μmoles/hr/^5 mg. protein

CCCCC [n-Pentane]
Conversion Rate [22]: 0.04 μmole/hr/mg protein
Conversion Rate ([23]; growth substrate Methane, n-alkane to secondary alcohol): 0.01 μmoles/hr/^5 mg. protein
Conversion Rate [23, 38]: 0.18 μmole/hr/mg protein
Conversion Rate [25, 38]: 0.15 μmole/hr/mg protein
Conversion Rate [35]: 0.06 μmole/hr/mg protein
Conversion Rate [32, 38]: 0.08 μmole/hr/mg protein
Conversion Rate [36]: 0.032 μmoles/hr/^5 mg. protein
Conversion Rate [37]: 0.06 μmoles/hr/^5 mg. protein
